Patent publication US12246008B2, “4-amino or 4-alkoxy-substituted aryl sulfonamide compounds with selective activity in voltage-gated sodium channels” (Merck Sharp & Dohme LLC, priority 2018, dated 2025)
Like-named read-outs stand apart in the source and are kept apart here.

Assays:
Experiment in all cases: Qube automated patch-clamp assay, inhibition of sodium current
Type in all cases: cell-based
[1] = target: T1, human Nav1.6 channels stably expressed in HEK 293 cells (Homo sapiens, UniProt Q9UQD0); conditions: holding potential −65 mV; max concentration tested 33750 nM
T1 construct: expressed in transfected cells; host or cells: HEK 293
Method: (§1) Qube™ Experimental Procedure:
(§2) Compounds were tested on human Nav1.7 and Nav1.6 channels stably expressed in HEK 293 cells. […] Cells were sealed on a planar substrate using the multihole technology. Cells expressing human Nav1.7 channels were held at −75 mV or −80 mV. Cells expressing human Nav1.6 channels were held at −65 mV. A train of 6 consecutive test pulses to −10 mV, preceded by 8 s prepulses to −115 mV, was applied at a frequency of 0.1 Hz before and after compound addition. Cells in each Qchip well were incubated in compound for 5 minutes before measuring inhibition. Peak currents were measured in control conditions and after compound addition. The following recording solutions were used (mM). External Nav1.6: 150 NaCl, 2 CaCl2), 5 KCl, 1 Mg Cl2, 10 HEPES, 12 Dextrose; external Nav1.7: 40 NaCl, 120 NMDG, 1 KCl, 0.5 MgCl2, 5 HEPES, 2.7 CaCl2); internal: 120 CsF, 30 CsCl, 10 EGTA, 5 HEPES, 5 NaF, 2 MgCl2. Compounds were prepared as 10 mM stock solutions in DMSO. 10 point compound titrations were generated using the Echo acoustic liquid handling instrument and glass coated 384 well plates. The final DMSO concentration in the assay was 0.3%. For all electrophysiology experiments, offline analysis was used to determine percent inhibition as a function of drug concentration. IC50 values were determined by fitting to the Hill equation.
(§3) The various compounds in EXAMPLES 1 through 43 and TABLE 2 exemplified above were assayed for activity and selectivity using the foregoing Qube® technique. The results are reported in TABLE 3 in a format expressing the identification of the compound with reference EXAMPLE followed by the observed potency in nM for NaV1.7, NaV1.6 and NaV1.5. NA signifies not applicable and the max concentration tested is 33750 nM.

[2] = target: T2, human Nav1.7 channels stably expressed in HEK 293 cells (Homo sapiens, UniProt Q15858); conditions: max concentration tested 33750 nM, read-out: NaV1.7 (nM)
T2 construct: expressed in transfected cells; host or cells: HEK 293
Method: as §1, §2, §3

NaV1.5 = NaV1.5 (Homo sapiens, UniProt Q14524); conditions: holding potential −80 mV; max concentration tested 33750 nM
Method: as §2, §3

[3] = holding potential −75 mV, −75 mV
[4] = holding potential −80 mV, −80 mV

Sequence of NaV1.5 (Q14524 whole entry): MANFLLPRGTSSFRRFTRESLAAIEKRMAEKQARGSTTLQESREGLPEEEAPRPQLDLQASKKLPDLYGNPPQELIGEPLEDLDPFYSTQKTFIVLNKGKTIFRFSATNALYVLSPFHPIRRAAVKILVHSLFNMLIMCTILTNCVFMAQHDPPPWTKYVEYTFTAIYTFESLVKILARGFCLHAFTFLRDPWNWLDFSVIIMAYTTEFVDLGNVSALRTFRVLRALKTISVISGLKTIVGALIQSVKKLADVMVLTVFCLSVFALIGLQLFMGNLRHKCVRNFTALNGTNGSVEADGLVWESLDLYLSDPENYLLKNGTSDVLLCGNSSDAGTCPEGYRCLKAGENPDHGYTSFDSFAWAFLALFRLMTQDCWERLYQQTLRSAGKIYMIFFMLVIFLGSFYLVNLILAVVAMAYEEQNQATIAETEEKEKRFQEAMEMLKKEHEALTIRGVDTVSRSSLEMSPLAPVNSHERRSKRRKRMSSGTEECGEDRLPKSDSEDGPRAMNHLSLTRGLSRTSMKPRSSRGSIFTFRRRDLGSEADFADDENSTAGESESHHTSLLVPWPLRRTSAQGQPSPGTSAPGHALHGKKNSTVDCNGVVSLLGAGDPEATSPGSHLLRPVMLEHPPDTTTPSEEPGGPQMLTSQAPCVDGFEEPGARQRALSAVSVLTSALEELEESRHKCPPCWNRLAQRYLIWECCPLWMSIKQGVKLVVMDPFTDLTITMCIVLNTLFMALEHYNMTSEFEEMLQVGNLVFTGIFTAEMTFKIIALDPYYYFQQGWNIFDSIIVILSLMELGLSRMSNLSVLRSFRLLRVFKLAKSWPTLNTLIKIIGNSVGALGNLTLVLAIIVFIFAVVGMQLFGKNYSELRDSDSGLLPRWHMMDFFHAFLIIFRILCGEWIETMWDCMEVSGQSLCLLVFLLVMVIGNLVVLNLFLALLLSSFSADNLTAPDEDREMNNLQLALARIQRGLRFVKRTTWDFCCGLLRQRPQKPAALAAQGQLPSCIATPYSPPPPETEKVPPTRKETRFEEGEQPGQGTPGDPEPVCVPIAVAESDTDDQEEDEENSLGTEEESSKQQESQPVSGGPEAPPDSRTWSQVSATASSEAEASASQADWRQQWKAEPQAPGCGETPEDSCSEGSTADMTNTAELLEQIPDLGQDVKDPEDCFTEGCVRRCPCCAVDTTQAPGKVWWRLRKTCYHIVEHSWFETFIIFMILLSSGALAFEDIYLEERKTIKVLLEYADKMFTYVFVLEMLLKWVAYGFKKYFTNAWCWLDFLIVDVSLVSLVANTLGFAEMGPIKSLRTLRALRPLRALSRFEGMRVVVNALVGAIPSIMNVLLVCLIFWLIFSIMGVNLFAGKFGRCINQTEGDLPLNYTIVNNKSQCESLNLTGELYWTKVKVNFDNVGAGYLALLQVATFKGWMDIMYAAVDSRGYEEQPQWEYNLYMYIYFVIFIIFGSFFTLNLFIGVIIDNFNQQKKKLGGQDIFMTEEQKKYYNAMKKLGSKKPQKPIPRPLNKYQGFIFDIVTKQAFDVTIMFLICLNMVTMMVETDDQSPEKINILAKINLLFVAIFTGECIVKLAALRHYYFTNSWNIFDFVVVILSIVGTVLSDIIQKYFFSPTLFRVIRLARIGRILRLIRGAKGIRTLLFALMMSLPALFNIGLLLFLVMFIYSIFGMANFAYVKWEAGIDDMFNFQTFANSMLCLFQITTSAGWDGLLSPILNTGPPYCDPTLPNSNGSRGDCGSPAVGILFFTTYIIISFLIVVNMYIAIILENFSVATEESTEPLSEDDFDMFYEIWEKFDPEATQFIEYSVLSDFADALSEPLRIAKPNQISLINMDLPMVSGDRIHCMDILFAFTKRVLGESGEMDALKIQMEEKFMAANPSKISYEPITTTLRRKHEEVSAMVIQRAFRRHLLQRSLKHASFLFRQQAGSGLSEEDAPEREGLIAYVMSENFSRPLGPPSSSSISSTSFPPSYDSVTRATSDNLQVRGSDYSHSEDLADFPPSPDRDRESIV
T1 sequence (Q9UQD0 whole entry): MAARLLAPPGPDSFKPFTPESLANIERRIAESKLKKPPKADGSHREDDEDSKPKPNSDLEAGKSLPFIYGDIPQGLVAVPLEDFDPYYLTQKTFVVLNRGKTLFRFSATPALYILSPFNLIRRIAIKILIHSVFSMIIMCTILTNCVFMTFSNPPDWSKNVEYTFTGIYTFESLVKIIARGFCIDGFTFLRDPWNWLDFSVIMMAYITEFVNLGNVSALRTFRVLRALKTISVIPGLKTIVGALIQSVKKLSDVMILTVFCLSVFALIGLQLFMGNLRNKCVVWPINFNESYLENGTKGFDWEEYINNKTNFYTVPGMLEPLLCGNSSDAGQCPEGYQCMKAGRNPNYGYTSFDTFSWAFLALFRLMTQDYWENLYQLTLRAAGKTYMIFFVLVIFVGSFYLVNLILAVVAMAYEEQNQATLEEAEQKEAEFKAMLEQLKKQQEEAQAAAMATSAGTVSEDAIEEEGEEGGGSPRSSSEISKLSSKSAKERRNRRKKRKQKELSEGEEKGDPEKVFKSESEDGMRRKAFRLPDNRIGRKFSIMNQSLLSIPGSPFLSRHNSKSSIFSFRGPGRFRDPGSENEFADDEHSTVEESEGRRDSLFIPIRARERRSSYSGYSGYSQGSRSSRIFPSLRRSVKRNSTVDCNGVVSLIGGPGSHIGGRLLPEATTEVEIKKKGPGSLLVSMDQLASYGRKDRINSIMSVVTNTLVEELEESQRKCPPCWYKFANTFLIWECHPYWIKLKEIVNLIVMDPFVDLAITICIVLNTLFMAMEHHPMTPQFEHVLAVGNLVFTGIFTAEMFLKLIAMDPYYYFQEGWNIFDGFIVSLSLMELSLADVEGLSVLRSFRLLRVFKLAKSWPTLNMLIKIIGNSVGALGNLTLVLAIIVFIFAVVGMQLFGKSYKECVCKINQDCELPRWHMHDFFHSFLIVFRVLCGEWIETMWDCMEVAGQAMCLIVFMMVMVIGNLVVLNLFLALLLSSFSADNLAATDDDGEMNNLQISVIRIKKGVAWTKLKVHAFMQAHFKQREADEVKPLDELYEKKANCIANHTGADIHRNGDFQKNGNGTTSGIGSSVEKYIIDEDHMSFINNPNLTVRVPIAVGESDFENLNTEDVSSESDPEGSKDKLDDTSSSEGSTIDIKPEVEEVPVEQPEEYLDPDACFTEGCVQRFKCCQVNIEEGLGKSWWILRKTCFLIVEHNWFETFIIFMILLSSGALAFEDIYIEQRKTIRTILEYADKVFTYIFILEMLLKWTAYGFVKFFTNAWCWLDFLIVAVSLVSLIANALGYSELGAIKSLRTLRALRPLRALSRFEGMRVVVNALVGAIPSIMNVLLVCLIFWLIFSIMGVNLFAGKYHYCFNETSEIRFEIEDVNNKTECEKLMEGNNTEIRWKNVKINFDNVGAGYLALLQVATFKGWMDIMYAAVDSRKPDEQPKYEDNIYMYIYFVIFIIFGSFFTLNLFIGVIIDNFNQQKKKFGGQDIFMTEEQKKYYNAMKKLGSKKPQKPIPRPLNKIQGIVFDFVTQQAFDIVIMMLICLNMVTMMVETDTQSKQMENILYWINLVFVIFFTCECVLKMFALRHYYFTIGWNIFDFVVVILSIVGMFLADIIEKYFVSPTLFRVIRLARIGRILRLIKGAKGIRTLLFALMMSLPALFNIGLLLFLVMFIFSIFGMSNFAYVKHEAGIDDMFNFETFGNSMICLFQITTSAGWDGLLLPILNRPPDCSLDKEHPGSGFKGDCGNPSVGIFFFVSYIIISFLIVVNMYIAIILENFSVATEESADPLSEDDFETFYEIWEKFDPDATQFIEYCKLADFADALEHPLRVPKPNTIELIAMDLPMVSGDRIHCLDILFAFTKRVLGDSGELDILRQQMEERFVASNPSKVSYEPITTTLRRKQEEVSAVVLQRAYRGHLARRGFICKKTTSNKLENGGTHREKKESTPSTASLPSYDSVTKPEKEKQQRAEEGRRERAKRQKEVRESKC

Row | SMILES | IC50 [1] | IC50 [2, 3] | IC50 [2, 4] | IC50 (NaV1.5)
1 | C[C@@H](N)C(CNc1cc(F)c(S(=O)(=O)Nc2ncns2)cc1F)CC1CC(C)(C)CN1 (single isomer, unassigned) [Example 17] | > 33800 nM |  | 113 nM | > 33800 nM
2 | C[C@@H](N)C(CNc1cc(F)c(S(=O)(=O)Nc2ncns2)cc1F)CC1CCCCC1CCN (single isomer, unassigned) [Example 62] | > 33800 nM |  | 56 nM | > 33800 nM
3 | CC(C)(CCN)C[C@@H](CNc1cc(F)c(S(=O)(=O)Nc2ncns2)cc1F)[C@H](N)C1CC1 [Example 28, 4-(((S)-6-amino-2-((R)-amino(cyclopropyl)methyl)-4,4-dimethylhexyl)amino)-2,5-difluoro-N-(1,2,4-thiadiazol-5-yl)benzenesulfonamide] | > 33800 nM | 34 nM |  | > 33800 nM
4 | C[C@@H](N)[C@H](CNc1ccc(S(=O)(=O)Nc2ncns2)c(F)c1)CC(CCN)C1CC1 (single isomer, unassigned) [Example 20] |  |  | 1390 nM | 
5 | C[C@@H](N)C(CNc1cc(F)c(S(=O)(=O)Nc2ncns2)cc1F)CC1CCCC12CNC2 (single isomer, unassigned) [Example 25] | > 33800 nM |  | 83 nM | > 33800 nM
6 | C[C@@H](N)C(CNc1cc(F)c(S(=O)(=O)Nc2ncns2)cc1F)CC1(C)CCC1CN (single isomer, unassigned) [Example 52] | > 33800 nM |  | 12300 nM | 
7 | C[C@@H](N)[C@H](CNc1cc(F)c(S(=O)(=O)Nc2ncns2)cc1Cl)CC(N)C(F)(F)F (single isomer, unassigned) [Example 2] | 13800 nM | 84 nM |  | > 33800 nM
8 | C[C@@H](N)C(CNc1cc(F)c(S(=O)(=O)Nc2ncns2)cc1Br)CC1(CCN)CC(F)(F)C1 (single isomer, unassigned) [Example 57] | 224 nM |  | 10 nM | > 33800 nM
9 | C[C@@H](N)[C@@H](CC(C)(C)CCN)C1CCc2cc(S(=O)(=O)Nc3ncns3)c(F)cc2O1 (single isomer, unassigned) [Example 41] |  |  | 13700 nM | 
10 | C[C@@H](N)C(CNc1cc(F)c(S(=O)(=O)Nc2ncns2)cc1F)CC1CC(C)(C)CN1 (single isomer, unassigned) [Example 14] |  |  | > 33800 nM | 
11 | CC(C)NCC(CNc1cc(F)c(S(=O)(=O)Nc2ncns2)cc1Cl)[C@@H](C)N (single isomer, unassigned) [Example 37] | > 33800 nM | 6760 nM |  | 
12 | C[C@@H](N)C(CNc1cc(F)c(S(=O)(=O)Nc2ncns2)cc1Br)CC1(CCN)CC(F)(F)C1 (single isomer, unassigned) [Example 56] |  |  | > 33800 nM | 
13 | C[C@@H](N)C(CNc1cc(F)c(S(=O)(=O)Nc2ncns2)cc1F)CC1CCCC12CNC2 (single isomer, unassigned) [Example 24] |  |  | > 33800 nM | 
14 | C[C@@H](N)C(COc1ncc(S(=O)(=O)Nc2ncc(F)s2)cc1Cl)CC1(CCN)CCC1 (single isomer, unassigned) [Example 6] | > 33800 nM | 93 nM |  | 
15 | C[C@@H](N)[C@H](CNc1cc(F)c(S(=O)(=O)Nc2ncns2)cc1Cl)CC(N)C(F)(F)F (single isomer, unassigned) [Example 1] | 20400 nM | 203 nM |  | 
16 | C[C@@H](N)[C@H](CNc1ncc(S(=O)(=O)Nc2ncns2)cc1C(F)(F)F)CC(C)(C)CCN [Example 13, 6-(((S)-6-amino-2-((R)-1-aminoethyl)-4,4-dimethylhexyl)amino)-N-(1,2,4-thiadiazol-5-yl)-5-(trifluoromethyl)pyridine-3-sulfonamide] | > 33800 nM | 230 nM |  | 
17 | C[C@@H](N)[C@H](CNc1cc(F)c(S(=O)(=O)Nc2ncns2)cc1Cl)C[C@@H]1C[C@@H]1CN (single isomer, unassigned) [Example 33] | > 33800 nM | 156 nM |  | 
18 | C[C@@H](N)C(CNc1cc(F)c(S(=O)(=O)Nc2ncns2)cc1F)CC1(C)CCC1CN (single isomer, unassigned) [Example 55] | > 33800 nM |  | 1060 nM | 
19 | C[C@@H](N)C(CNc1cc(F)c(S(=O)(=O)Nc2ncns2)cc1F)CC1CCCC1CN (single isomer, unassigned) [Example 47] | > 33800 nM |  | 3610 nM | 
20 | C[C@@H](N)[C@H](CNc1ncc(S(=O)(=O)Nc2ncns2)cc1C#N)CC(C)(C)CCN [Example 31, 6-(((S)-6-amino-2-((R)-1-aminoethyl)-4,4-dimethylhexyl)amino)-5-cyano-N-(1,2,4-thiadiazol-5-yl)pyridine-3-sulfonamide] | > 33800 nM | 205 nM |  | 
21 | CC[C@@H](N)C(CNc1cc(F)c(S(=O)(=O)Nc2ncns2)c(F)c1F)CC1(CCN)CCC1 (single isomer, unassigned) [Example 21] |  |  | 916 nM | 
22 | C[C@@H](N)C(CNc1ncc(S(=O)(=O)Nc2ncc(F)s2)cc1Cl)CC1(CCN)CCC1 (single isomer, unassigned) [Example 8] | > 33800 nM | 18 nM |  | 

More lines, main results first:

Row | IC50 [1] | IC50 [2, 3] | IC50 [2, 4] | SMILES | IC50 (NaV1.5)
23 | > 33800 nM | 618 nM |  | C[C@@H](N)C(CNc1cc(F)c(S(=O)(=O)Nc2ncns2)cc1F)C[C@@]1(C)CCC[C@@H]1CN (single isomer, unassigned) [Example 96] | 
24 | > 33800 nM |  | 328 nM | C[C@@H](N)C(CNc1cc(F)c(S(=O)(=O)Nc2ncns2)cc1F)CC1CNCC1(C)C (single isomer, unassigned) [Example 76] | 
25 |  |  | 1760 nM | COC(CN)C[C@@H](CNc1cc(F)c(S(=O)(=O)Nc2ncns2)cc1Br)[C@@H](C)N (single isomer, unassigned) [Example 82] | 
26 | > 33800 nM |  | 14600 nM | C[C@@H](N)C(CNc1cc(F)c(S(=O)(=O)Nc2ncns2)cc1F)CC1CCCCC1CCN (single isomer, unassigned) [Example 64] | 
27 | > 33800 nM | 23 nM |  | COc1cc(S(=O)(=O)Nc2ncns2)c(F)cc1NCC(CC1(CN)CCC1)[C@@H](C)N (some centres unmarked) [Example 73] | > 33800 nM
28 | > 33800 nM |  | 2360 nM | C[C@@H](N)C(CNc1cc(F)c(S(=O)(=O)Nc2ncns2)cc1F)C[C@]1(C)CCC[C@H]1CN (single isomer, unassigned) [Example 98] | 
29 | 3590 nM | 17 nM |  | Cc1cc(S(=O)(=O)Nc2ncc(F)s2)c(F)cc1NC[C@H](CC(C)(C)N)[C@@H](C)N [Example 107] | 
30 | 8340 nM | 14 nM |  | C[C@@H](N)[C@H](CNc1cc(F)c(S(=O)(=O)Nc2cccc(F)n2)cc1Cl)CC1(N)CCC1 [Example 105] | 
31 | > 33800 nM | 17 nM |  | CC(C)C(N)CC(CNc1cc(F)c(S(=O)(=O)Nc2ncns2)cc1Br)[C@@H](C)N (single isomer, unassigned) [Example 108] | 
32 | > 33800 nM |  | 87 nM | COC(CN)C[C@@H](CNc1cc(F)c(S(=O)(=O)Nc2ncns2)cc1Br)[C@@H](C)N (single isomer, unassigned) [Example 81] | 
33 | > 33800 nM | 84 nM |  | C[C@@H](N)C(CNc1cc(F)c(S(=O)(=O)Nc2ncns2)cc1Cl)CC1COCCN1 (single isomer, unassigned) [Example 101] | 
34 | > 33800 nM | 133 nM |  | Cc1csc(NS(=O)(=O)c2cc(Cl)c(NC[C@H](CC(C)(C)N)[C@@H](C)N)cc2F)n1 [Example 106] | 
35 | > 33800 nM |  | > 33800 nM | C[C@@H](N)C(CNc1cc(F)c(S(=O)(=O)Nc2ncns2)cc1F)CC1CCCCC1CCN (single isomer, unassigned) [Example 67] | 
36 | > 33800 nM |  | 4130 nM | C[C@@H](N)C(COc1cc(F)c(S(=O)(=O)Nc2ncns2)cc1F)CC1(CCN)CCC1 (single isomer, unassigned) [Example 95] | 
37 | > 33800 nM |  | 450 nM | C[C@@H](N)C(CNc1cc(F)c(S(=O)(=O)Nc2ncns2)cc1F)C[C@]1(C)CCC[C@H]1CN (single isomer, unassigned) [Example 99] | 
38 | > 33800 nM |  | 12600 nM | C[C@@H](N)C(CNc1cc(F)c(S(=O)(=O)Nc2ncns2)cc1F)CC1CCCCC1CCN (single isomer, unassigned) [Example 66] | 
39 | > 33800 nM | 305 nM |  | C[C@@H](N)C(CNc1cc(F)c(S(=O)(=O)Nc2ncns2)cc1Cl)CC1COCCN1 (single isomer, unassigned) [Example 104] | 
40 | > 33800 nM | 274 nM |  | C[C@@H](N)C(CNc1ccc(S(=O)(=O)Nc2ncns2)cc1F)CC1(N)CCC1 (single isomer, unassigned) [Example 89] | 
